From PMC6073568, “Efficient Lead Finding, Activity Enhancement and Preliminary Selectivity Control of Nuclear Receptor Ligands Bearing a Phenanthridinone Skeleton” (International Journal of Molecular Sciences, 2018)
Read-outs that look alike come from different tables or passages of the source.

Columns and labels:
[1] = target: T1, LXRα (Homo sapiens, UniProt Q13133); assay: LXRα reporter gene assay in HEK293; assay type: cell-based; details: read-out: LXRα antagonistic activity (IC50)
T1 construct: CMX-GAL4N-hLXRα-LBD; expressed in transfected cells; host or cells: HEK293
T1 sequence (Q13133 209-447 limits assumed): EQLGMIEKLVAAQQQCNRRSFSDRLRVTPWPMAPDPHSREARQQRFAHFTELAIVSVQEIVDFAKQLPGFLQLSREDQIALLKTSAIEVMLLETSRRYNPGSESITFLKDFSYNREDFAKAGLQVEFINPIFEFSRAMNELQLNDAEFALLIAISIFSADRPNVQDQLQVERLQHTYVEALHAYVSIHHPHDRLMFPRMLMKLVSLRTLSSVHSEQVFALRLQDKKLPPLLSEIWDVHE

[2] = target: T2, LXRβ (Homo sapiens, UniProt P55055); assay: LXRβ reporter gene assay in HEK293; assay type: cell-based; details: read-out: LXRβ antagonistic activity (IC50)
T2 construct: CMX-GAL4N-hLXRβ-LBD; expressed in transfected cells; host or cells: HEK293
T2 sequence (P55055 222-460 limits assumed): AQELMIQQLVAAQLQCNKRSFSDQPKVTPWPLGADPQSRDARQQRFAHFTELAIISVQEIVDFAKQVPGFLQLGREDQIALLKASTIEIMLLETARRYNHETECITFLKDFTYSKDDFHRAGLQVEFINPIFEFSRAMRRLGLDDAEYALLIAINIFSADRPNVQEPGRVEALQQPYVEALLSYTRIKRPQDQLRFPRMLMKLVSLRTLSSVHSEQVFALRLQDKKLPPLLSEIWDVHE

[3] = target: T3, PR (Homo sapiens, UniProt P06401); assay: T-47D alkaline phosphatase assay (PR antagonism); assay type: cell-based; details: compared with 7
T3 sequence (P06401 1-933): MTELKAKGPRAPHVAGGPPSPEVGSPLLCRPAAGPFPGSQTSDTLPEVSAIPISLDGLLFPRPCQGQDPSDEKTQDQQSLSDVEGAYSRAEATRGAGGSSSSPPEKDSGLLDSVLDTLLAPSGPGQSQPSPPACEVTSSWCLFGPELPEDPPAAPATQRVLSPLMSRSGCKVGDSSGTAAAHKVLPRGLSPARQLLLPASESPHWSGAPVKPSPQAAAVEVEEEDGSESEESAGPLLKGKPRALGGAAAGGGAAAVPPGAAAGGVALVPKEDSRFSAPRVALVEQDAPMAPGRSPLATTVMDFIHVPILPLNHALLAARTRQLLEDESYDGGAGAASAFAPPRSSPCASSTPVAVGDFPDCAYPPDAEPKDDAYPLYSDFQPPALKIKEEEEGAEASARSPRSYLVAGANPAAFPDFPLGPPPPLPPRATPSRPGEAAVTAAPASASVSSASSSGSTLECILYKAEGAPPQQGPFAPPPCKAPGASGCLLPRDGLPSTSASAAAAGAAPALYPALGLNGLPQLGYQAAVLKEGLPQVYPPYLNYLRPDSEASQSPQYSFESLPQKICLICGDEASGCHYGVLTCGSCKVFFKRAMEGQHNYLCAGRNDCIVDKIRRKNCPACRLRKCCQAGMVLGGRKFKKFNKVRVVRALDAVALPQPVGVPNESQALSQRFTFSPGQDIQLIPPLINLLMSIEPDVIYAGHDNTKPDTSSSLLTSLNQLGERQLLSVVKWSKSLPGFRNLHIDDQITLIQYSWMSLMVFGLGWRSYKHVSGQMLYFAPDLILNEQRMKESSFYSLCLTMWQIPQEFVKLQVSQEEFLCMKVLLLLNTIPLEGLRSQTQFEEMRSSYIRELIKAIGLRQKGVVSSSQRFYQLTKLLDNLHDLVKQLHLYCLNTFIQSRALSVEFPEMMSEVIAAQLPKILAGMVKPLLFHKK

[4] = target: T4, AR (Homo sapiens, UniProt P10275); assay: AR reporter gene assay in HEK293; assay type: cell-based; details: for IC50: reporter gene assay, HEK293
T4 sequence (P10275 1-920): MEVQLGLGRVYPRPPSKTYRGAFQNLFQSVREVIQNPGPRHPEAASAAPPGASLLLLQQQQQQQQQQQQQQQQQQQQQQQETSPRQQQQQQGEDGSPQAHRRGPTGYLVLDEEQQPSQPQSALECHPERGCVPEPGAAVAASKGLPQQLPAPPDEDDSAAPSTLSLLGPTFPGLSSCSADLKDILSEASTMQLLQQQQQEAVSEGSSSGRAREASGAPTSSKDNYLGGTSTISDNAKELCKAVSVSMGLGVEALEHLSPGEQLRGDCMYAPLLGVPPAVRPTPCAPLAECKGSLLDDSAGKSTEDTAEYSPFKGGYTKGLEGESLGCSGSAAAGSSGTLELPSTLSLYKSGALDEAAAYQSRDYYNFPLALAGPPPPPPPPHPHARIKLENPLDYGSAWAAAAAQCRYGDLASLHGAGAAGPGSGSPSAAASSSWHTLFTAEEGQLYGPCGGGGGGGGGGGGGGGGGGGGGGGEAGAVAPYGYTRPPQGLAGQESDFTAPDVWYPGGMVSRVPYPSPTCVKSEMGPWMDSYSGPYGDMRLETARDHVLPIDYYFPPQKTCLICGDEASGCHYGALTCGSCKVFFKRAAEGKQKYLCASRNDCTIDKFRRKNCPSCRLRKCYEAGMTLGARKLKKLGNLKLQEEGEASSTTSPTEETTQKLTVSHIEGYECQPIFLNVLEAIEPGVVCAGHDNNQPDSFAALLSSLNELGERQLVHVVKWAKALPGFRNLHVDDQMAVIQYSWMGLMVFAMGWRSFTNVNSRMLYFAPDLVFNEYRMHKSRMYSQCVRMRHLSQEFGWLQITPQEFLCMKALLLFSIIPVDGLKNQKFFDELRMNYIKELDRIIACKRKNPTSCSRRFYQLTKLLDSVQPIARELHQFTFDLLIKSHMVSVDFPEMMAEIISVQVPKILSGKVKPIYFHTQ

[5] = target: T5, GR (Homo sapiens, UniProt P04150); assay: GR reporter gene assay in HEK293; assay type: cell-based; details: reporter gene assay, HEK293; agonist dexamethasone 1 nM; read-out: GR antagonistic activity (IC50)
T5 construct: expressed in transfected cells; host or cells: HEK293
T5 sequence (P04150 1-777): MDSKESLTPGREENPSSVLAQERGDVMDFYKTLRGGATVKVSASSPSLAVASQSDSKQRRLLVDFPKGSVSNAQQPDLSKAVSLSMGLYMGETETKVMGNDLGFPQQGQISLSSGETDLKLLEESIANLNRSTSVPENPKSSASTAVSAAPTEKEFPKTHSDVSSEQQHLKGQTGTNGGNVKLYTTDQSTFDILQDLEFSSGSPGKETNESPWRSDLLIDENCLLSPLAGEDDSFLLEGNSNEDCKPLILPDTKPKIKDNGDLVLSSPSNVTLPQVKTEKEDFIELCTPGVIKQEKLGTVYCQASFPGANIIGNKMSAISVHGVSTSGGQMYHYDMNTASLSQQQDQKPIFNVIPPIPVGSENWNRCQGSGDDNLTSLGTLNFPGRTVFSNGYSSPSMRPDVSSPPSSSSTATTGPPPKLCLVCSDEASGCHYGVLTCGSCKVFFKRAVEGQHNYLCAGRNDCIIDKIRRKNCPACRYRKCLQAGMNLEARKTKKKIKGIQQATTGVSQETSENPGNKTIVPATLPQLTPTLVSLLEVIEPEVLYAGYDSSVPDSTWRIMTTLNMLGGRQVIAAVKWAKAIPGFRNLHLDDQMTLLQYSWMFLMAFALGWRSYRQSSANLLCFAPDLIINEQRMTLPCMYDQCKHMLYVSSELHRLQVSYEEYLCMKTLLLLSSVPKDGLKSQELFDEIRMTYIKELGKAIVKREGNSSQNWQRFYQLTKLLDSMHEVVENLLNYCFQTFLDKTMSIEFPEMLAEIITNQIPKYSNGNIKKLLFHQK

[6] = target: T3, PR; details: alkaline phosphatase, T47D cells, progesterone 1 nM; read-out: PR antagonistic activity (IC50); cited from earlier work
[7] = agonist dihydrotestosterone 0.3 nM, read-out: AR antagonistic activity (IC50), AR reporter gene

Compound | IC50 [1] | IC50 [2] | increase of PR activity [3] | selectivity for AR over LXRs [4] | selectivity for AR over PR [4] | selectivity for AR over RORs and GR [4] | increase of AR activity ([4]; compared with 7) | IC50 [4, 7] | IC50 ([4]; read-out: AR antagonistic activity IC50) | IC50 [5] | IC50 [6]
CCCCn1c(=O)c2ccccc2c2cc(C(O)(C(F)(F)F)C(F)(F)F)ccc21 [Compound 12] | 8.4 µM | 3.7 µM | 6 fold | ~50 fold | about 7.8 fold | more than 200 fold | 9 fold | 1.8 µM | 0.1 µM | 7.4 µM | –
CCCCn1c(=O)c2ccc(C(F)(F)F)cc2c2cc(C(O)(C(F)(F)F)C(F)(F)F)ccc21 [Compound 37] | 7.1 µM | 4.4 ± 0.8 µM | – | – | – | – | – | > 20 µM | – | > 20 µM | 4.2 µM
